Counter-ions that a name gives are not always drawn.
Assays:
[1] = biological target: Recombinant full length human OGA enzyme (Homo sapiens (Human), UniProt O60502); assay: OGA Enzyme Inhibition Biochemical Assay
Protocol: Recombinant full length human OGA enzyme was purchased from Origene. 4-MUGlcNAc substrate was purchased from Sigma. All other reagents were purchased from Sigma or Fisher. Assay buffer consists of the McIlvaine buffer system, pH 6.4 (0.2M Na2HPO4 mixed with 0.1M citric acid) and 0.01% BSA. […] Reactions were incubated for 90 minutes at room temperature and quenched with 40 μl of 3M glycine, pH 10 and read on a Perkin Elmer Envision plate reader (Ex: 355 nm/Em: 460 nm). Compounds were tested with a 10-point dose-response starting from 20 μM with a 4-fold dilution. Data was fit using GraphPad Prism using a 4-parameter fit with variable slope.

[2] = biological target: OGA (S400 O-GLCNAC), HEK-293T cells transfected with Tau-V5 (Homo sapiens (Human), UniProt O60502); assay: Cellular OGA-Tau MSD Assay; format: cell-based
Protocol: HEK-293T cells were transfected with […] and Tau-V5 plasmids using Lipofectamine and grown overnight. Next day, the cells were collected and re-plated at 1×10^5 cells per well in 96 well plates. Cells were incubated for 4 hr at 37° C., before compounds were added at 1 uM, with 3-fold dilutions in a 10-point titration. Cell plates were incubated with compounds overnight at 37° C. The next day media was removed from wells by gentle aspiration and 120 ul of 1× Cell Lysis buffer mixed with protease and phosphatase cocktail added to each well. A freeze thaw was performed at -80° C., then mixed before transferring 50 ul to MSD plates coated with V5-tag antibody to capture Tau. MSD Plates were incubated overnight at 4° C., on a plate shaker. The following day, plates were washed and incubated with Tau-[…]-GlcNAc antibody for 2 hr and then developed with rabbit Sulfo-tag antibody. Final read out was carried out on an MSD 600 reader. The data was analyzed using Graph Pad or Genedata, the data was normalized and % activity versus log of compound concentration was plotted. The IC50 values were obtained from a 4 parameter fit.

[3] = 1 nM OGA, 100 μM 4-MUGlcNAc, pH 6.4
[4] = HEK-293T cells, Tau-S400-GlcNAc MSD readout
[5] = repeated assay, value marked with asterisk (*)

Sequence of Recombinant full length human OGA enzyme (O60502 whole entry): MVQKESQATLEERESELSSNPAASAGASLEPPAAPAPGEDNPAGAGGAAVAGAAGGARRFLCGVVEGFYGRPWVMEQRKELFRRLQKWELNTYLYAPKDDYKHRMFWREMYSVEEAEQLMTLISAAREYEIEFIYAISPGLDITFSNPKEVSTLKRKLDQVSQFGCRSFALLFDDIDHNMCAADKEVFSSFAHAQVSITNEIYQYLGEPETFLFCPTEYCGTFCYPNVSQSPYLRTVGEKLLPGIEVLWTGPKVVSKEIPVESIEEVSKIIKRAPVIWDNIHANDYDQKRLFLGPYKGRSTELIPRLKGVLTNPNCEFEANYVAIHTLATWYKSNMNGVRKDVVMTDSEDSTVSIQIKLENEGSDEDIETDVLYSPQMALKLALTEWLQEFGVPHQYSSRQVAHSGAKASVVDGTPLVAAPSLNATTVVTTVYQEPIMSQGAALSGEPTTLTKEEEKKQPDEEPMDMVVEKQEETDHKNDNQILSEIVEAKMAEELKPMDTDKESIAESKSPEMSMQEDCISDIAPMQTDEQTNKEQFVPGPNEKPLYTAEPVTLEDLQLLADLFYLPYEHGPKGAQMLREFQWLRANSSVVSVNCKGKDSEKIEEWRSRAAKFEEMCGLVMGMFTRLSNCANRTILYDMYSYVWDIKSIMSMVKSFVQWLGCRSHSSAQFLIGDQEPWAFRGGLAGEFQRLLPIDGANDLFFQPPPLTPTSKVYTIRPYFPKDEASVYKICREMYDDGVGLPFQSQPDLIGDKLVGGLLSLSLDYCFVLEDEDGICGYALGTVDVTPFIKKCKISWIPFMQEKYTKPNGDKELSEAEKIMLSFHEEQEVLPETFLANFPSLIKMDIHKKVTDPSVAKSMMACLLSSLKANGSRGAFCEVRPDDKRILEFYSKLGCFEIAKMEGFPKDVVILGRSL
Sequence of OGA (S400 O-GLCNAC), HEK-293T cells transfected with Tau-V5 (O60502 whole entry): as above

| Compound | IC50 [1, 3] [nM] | IC50 [2, 4] [nM] | IC50 [2, 5] [nM] | IC50 [1, 5] [nM] |
| --- | --- | --- | --- | --- |
| CC(=O)Nc1nc(F)c(CN2C[C@H](Oc3cc(N4CC(F)(F)C4)ncn3)C[C@@H]2C)s1 [Example 1-26, N-(5-(((2S,4R)-4-((6-(3,3-difluoroazetidin-1-yl)pyrimidin-4-yl)oxy)-2-methylpyrrolidin-1-yl)methyl)-4-fluorothiazol-2-yl)acetamide] | < 1 | 1 |  |  |
| CC(=O)Nc1nc(F)c(CN2C[C@H](Oc3cc(N4CC(F)C4)ncn3)C[C@@H]2C)s1 [Example 1-25, N-(4-fluoro-5-(((2S,4R)-4-((6-(3-fluoroazetidin-1-yl)pyrimidin-4-yl)oxy)-2-methylpyrrolidin-1-yl)methyl)thiazol-2-yl)acetamide] | < 1 | < 1 |  |  |
| CC(=O)Nc1nc(F)c(CN2C[C@H](Oc3ccc(N4CCOCC4)cn3)C[C@@H]2C)s1 [Example 1-146, N-(4-fluoro-5-(((2S,4R)-2-methyl-4-((5-morpholinopyridin-2-yl)oxy)pyrrolidin-1-yl)methyl)thiazol-2-yl)acetamide] | < 1 |  |  |  |
| CC(=O)Nc1nc(F)c(CN2C[C@H](Oc3ccc(F)nn3)C[C@@H]2C)s1 [Example 1-111, N-(4-fluoro-5-(((2S,4R)-4-((6-fluoropyridazin-3-yl)oxy)-2-methylpyrrolidin-1-yl)methyl)thiazol-2-yl)acetamide] | < 1 | 1 |  |  |
| COc1ncnc(O[C@@H]2C[C@H](C)N(Cc3cnc(NC(C)=O)s3)C2)c1F [Example 1-19, N-(5-(((2S,4R)-4-((5-fluoro-6-methoxypyrimidin-4-yl)oxy)-2-methylpyrrolidin-1-yl)methyl)thiazol-2-yl)acetamide] | 1.2 |  | 6 |  |
| CC(=O)Nc1nc(F)c(CN2C[C@H](Oc3cc(OC4CN(C)C4)ncn3)C[C@@H]2C)s1 [Example 1-141, N-(4-fluoro-5-(((2S,4R)-2-methyl-4-((6-((1-methylazetidin-3-yl)oxy)pyrimidin-4-yl)oxy)pyrrolidin-1-yl)methyl)thiazol-2-yl)acetamide] | 1 | 7 |  |  |
| COc1cc(O[C@H]2CCN(Cc3sc(NC(C)=O)nc3F)C2)ncn1 [Example 1-27, (S)—N-(4-fluoro-5-((3-((6-methoxypyrimidin-4-yl)oxy)pyrrolidin-1-yl)methyl)thiazol-2-yl)acetamide] | 850 |  |  |  |
| CC(=O)Nc1ncc(CN2C[C@H](Oc3cc(=O)n(C)cn3)C[C@@H]2C)s1 [Example 1-70, N-(5-(((2S,4R)-2-methyl-4-((1-methyl-6-oxo-1,6-dihydropyrimidin-4-yl)oxy)pyrrolidin-1-yl)methyl)thiazol-2-yl)acetamide] |  | 5 |  |  |
| [2H]C([2H])(c1sc(NC(C)=O)nc1F)N1C[C@H](Oc2cc(OC)ncn2)C[C@@H]1C (single isomer, unassigned) [Example 1-161] | < 1 | 4 |  |  |
| COc1cncnc1O[C@@H]1C[C@H](C)N(Cc2cnc(NC(C)=O)s2)C1 [Example 1-74] | 6.4 | 13 |  |  |
| CC(=O)Nc1nc(F)c(CN2C[C@H](Oc3cc(N4CCC4)ncn3)C[C@@H]2C)s1 [Example 1-24, N-(5-(((2S,4R)-4-((6-(azetidin-1-yl)pyrimidin-4-yl)oxy)-2-methylpyrrolidin-1-yl)methyl)-4-fluorothiazol-2-yl)acetamide] | < 1 | 1 |  |  |
| CC(=O)Nc1ncc(CN2C[C@H](Oc3cc(C(F)(F)F)ncn3)C[C@@H]2C)s1 [Example 1-79, N-(5-(((2S,4R)-2-methyl-4-((6-(trifluoromethyl)pyrimidin-4-yl)oxy)pyrrolidin-1-yl)methyl)thiazol-2-yl)acetamide] | 11 | 41 |  |  |
| [2H]C(c1sc(NC(C)=O)nc1F)N1C[C@H](Oc2cc(OC)ncn2)C[C@@H]1C (single isomer, unassigned) [Example 1-159] | < 1 | 1 |  |  |
| CC(=O)Nc1ncc(CN2C[C@H](Oc3cc(C)nc(C)c3)CC[C@@H]2C)s1 [Example 1-67, N-(5-(((2S,5R)-5-((2,6-dimethylpyridin-4-yl)oxy)-2-methylpiperidin-1-yl)methyl)thiazol-2-yl)acetamide] | < 1 | 3 |  |  |
| CC(=O)Nc1ncc(CN2C[C@@H](Oc3ccc(F)cn3)CC[C@@H]2C)s1 [Example 1-5, N-(5-(((2S,5S)-5-((5-fluoropyridin-2-yl)oxy)-2-methylpiperidin-1-yl)methyl)thiazol-2-yl)acetamide] | 1.6 | 4 |  |  |
| CC(=O)Nc1ncc(CN2CC[C@H](Oc3ccc(F)cn3)C2)s1 [Example 1-7, (S)—N-(5-((3-((5-fluoropyridin-2-yl)oxy)pyrrolidin-1-yl)methyl)thiazol-2-yl)acetamide] | > 1000 |  |  | 2000 |
| CNc1cc(O[C@@H]2C[C@H](C)N(Cc3cnc(NC(C)=O)s3)C2)ncn1 [Example 1-137, N-(5-(((2S,4R)-2-methyl-4-((6-(methylamino)pyrimidin-4-yl)oxy)pyrrolidin-1-yl)methyl)thiazol-2-yl)acetamide] | < 1 | 2 |  |  |
| [2H]C([2H])([2H])C(=O)Nc1nc(F)c(CN2C[C@H](Oc3cc(OC)ncn3)C[C@@H]2C)s1 (single isomer, unassigned) [Example 1-157, trifluoroacetate salt] | < 1 | 3 |  |  |
| COc1cc(O[C@H]2CCN(Cc3cnc(NC(C)=O)s3)C2)ncn1 [Example 1-36, (S)—N-(5-((3-((6-methoxypyrimidin-4-yl)oxy)pyrrolidin-1-yl)methyl)thiazol-2-yl)acetamide] | 1700 |  |  |  |

Second part, the compound after the results:

| IC50 [1, 3] [nM] | IC50 [2, 4] [nM] | IC50 [2, 5] [nM] | IC50 [1, 5] [nM] | Compound |
| --- | --- | --- | --- | --- |
| < 1 | 2 |  |  | [2H][C@@]1(Oc2cc(OC)ncn2)C[C@H](C)N(Cc2sc(NC(C)=O)nc2F)C1 (single isomer, unassigned) [Example 1-165] |
| < 1 |  |  |  | COCCOc1ccnc(O[C@@H]2C[C@H](C)N(Cc3sc(NC(C)=O)nc3F)C2)c1 [Example 1-147, N-(4-fluoro-5-(((2S,4R)-4-((4-(2-methoxyethoxy)pyridin-2-yl)oxy)-2-methylpyrrolidin-1-yl)methyl)thiazol-2-yl)acetamide] |
| 2900 | > 1000 |  |  | COc1cc(O[C@H]2C[C@@H](C)N(Cc3sc(NC(C)=O)nc3F)C2)ncn1 [Example 1-31, N-(4-fluoro-5-(((2R,4S)-4-((6-methoxypyrimidin-4-yl)oxy)-2-methylpyrrolidin-1-yl)methyl)thiazol-2-yl)acetamide] |
| < 1 | 1 |  |  | COc1ccc(O[C@@H]2C[C@H](C)N(Cc3sc(NC(C)=O)nc3F)C2)nn1 [Example 1-84, N-(4-fluoro-5-(((2S,4R)-4-((6-methoxypyridazin-3-yl)oxy)-2-methylpyrrolidin-1-yl)methyl)thiazol-2-yl)acetamide] |
| 13 | 11 |  |  | [2H][C@]1(Oc2cc(OC)ncn2)C[C@H](C)N(Cc2sc(NC(C)=O)nc2F)C1 [Example 1-166, N-(4-fluoro-5-(((2S,4S)-4-((6-methoxypyrimidin-4-yl)oxy)-2-methylpyrrolidin-1-yl-4-d)methyl)thiazol-2-yl)acetamide] |
| < 1 | 2 |  |  | [2H]C([2H])([2H])Oc1cc(O[C@@H]2C[C@H](C)N(Cc3sc(NC(C)=O)nc3F)C2)ncn1 (single isomer, unassigned) [Example 1-155] |
| < 1 |  |  |  | COCCOc1cnc(O[C@@H]2C[C@H](C)N(Cc3sc(NC(C)=O)nc3F)C2)cn1 [Example 1-144, N-(4-fluoro-5-(((2S,4R)-4-((5-(2-methoxyethoxy)pyrazin-2-yl)oxy)-2-methylpyrrolidin-1-yl)methyl)thiazol-2-yl)acetamide] |
| 58 | 97 |  |  | COc1cc(O[C@@H]2C[C@@H](C)N(Cc3sc(NC(C)=O)nc3F)C2)ncn1 [Example 1-29, N-(4-fluoro-5-(((2R,4R)-4-((6-methoxypyrimidin-4-yl)oxy)-2-methylpyrrolidin-1-yl)methyl)thiazol-2-yl)acetamide] |
| < 1 | 1 |  |  | COc1cc(O[C@@H]2C[C@H](C)N(Cc3sc(NC(C)=O)nc3F)C2)ccn1 [Example 1-100, N-(4-fluoro-5-(((2S,4R)-4-((2-methoxypyridin-4-yl)oxy)-2-methylpyrrolidin-1-yl)methyl)thiazol-2-yl)acetamide] |
| < 1 |  |  |  | COCCN(C)c1ccnc(O[C@@H]2C[C@H](C)N(Cc3sc(NC(C)=O)nc3F)C2)c1 [Example 1-145, N-(4-fluoro-5-(((2S,4R)-4-((4-((2-methoxyethyl) (methyl)amino)pyridin-2-yl)oxy)-2-methylpyrrolidin-1-yl)methyl)thiazol-2-yl)acetamide] |
| < 1 |  |  |  | CC(=O)Nc1nc(F)c(CN2C[C@H](Oc3cc(C)c(F)cn3)C[C@@H]2C)s1 [Example 1-117, N-(4-fluoro-5-(((2S,4R)-4-((5-fluoro-4-methylpyridin-2-yl)oxy)-2-methylpyrrolidin-1-yl)methyl)thiazol-2-yl)acetamide] |

From US20240308995A1, “O-GLYCOPROTEIN-2-ACETAMIDO-2-DEOXY-3-D-GLUCOPYRANOSIDASE INHIBITORS” (BIOGEN MA INC., priority 2018, published 2024)
